Source: publication PMC10303200 (ACS Central Science, 2023)
“And” between values parts separate entries of the source, which are not always exact repeats. Identical values can stand only once.

Legend:
Format in all cases: binding
[1] = target: T1, GAL-3C (Homo sapiens, UniProt P17931); assay: Direct native ESI-MS at known concentrations with single glycans, 200 mM ammonium acetate, pH 6.9, 25 °C.; parameters: gene LGALS3; C-terminal carbohydrate recognition domain fragment, residues 107-250; details: SD; read-out: Kd (nMS), Table S2
[2] = target: T1, GAL-3C; assay: COIN-nMS (slow mixing in nanoESI emitter, fit of eq 12) at one glycan concentration, 200 mM ammonium acetate, pH 6.9, 25 °C.; parameters: gene LGALS3; C-terminal carbohydrate recognition domain fragment, residues 107-250; details: SD; read-out: Kd (COIN-nMS, individual experiments), Table S2
[3] = target: T1, GAL-3C; assay: COIN-nMS, global fit over several glycan concentrations, 200 mM ammonium acetate, pH 6.9, 25 °C.; parameters: gene LGALS3; C-terminal carbohydrate recognition domain fragment, residues 107-250; details: SD; read-out: Kd (COIN-nMS, global fit), Table S2
[4] = target: T1, GAL-3C; assay: Literature reference values quoted in the results table, conditions not restated.; parameters: gene LGALS3; C-terminal carbohydrate recognition domain fragment, residues 107-250; details: SD; read-out: Kd (Literature), Table S2; cited from earlier work
[5] = target: T2, GAL-7 (Homo sapiens, UniProt P47929); assay: Direct native ESI-MS of the GAL-7 homodimer with a mixture of ten glycans (G2, G5-G13), 200 mM ammonium acetate, pH 6.9.; details: SD, n = 8; read-out: Kd (nMS), Table S4
T2 construct: gene LGALS7; homodimer (monomer MW 14.94 kDa)

[6] = target: T2, GAL-7; assay: COIN-nMS of the GAL-7 homodimer with a mixture of ten glycans (G2, G5-G13), 200 mM ammonium acetate, pH 6.9.; details: SD, n = 8; read-out: Kd (COIN-nMS), Table S4
[7] = target: T3, DC-SIGN CRD (Homo sapiens, UniProt Q9NNX6); assay: Direct native ESI-MS (submicron emitters) with a mixture of ten glycans (G2, G5, G10, G14-G20), 200 mM ammonium acetate with 2.5 mM calcium salt, pH 7.4.; parameters: gene CD209; carbohydrate recognition domain, residues 250-404, MW 17 794 Da; details: SD, n = 6; read-out: Kd (nMS), Table S5
T3 sequence (Q9NNX6 250-404): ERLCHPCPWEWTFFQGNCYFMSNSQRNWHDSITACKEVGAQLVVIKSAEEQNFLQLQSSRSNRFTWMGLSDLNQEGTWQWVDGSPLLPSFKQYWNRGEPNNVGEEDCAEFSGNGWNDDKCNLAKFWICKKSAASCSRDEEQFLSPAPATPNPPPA

[8] = target: T3, DC-SIGN CRD; assay: COIN-nMS (submicron emitters) with a mixture of ten glycans (G2, G5, G10, G14-G20), 200 mM ammonium acetate with 2.5 mM calcium salt, pH 7.4.; parameters: gene CD209; carbohydrate recognition domain, residues 250-404, MW 17 794 Da; details: SD, n = 6; read-out: Kd (COIN-nMS), Table S5
[9] = target: T1, GAL-3C; assay: Direct native ESI-MS with a mixture of ten glycans (G2, G5-G13), 200 mM ammonium acetate, pH 6.9.; parameters: gene LGALS3; C-terminal carbohydrate recognition domain fragment, residues 107-250; details: SD, n = 8; read-out: Kd (nMS), Table S3
[10] = target: T1, GAL-3C; assay: COIN-nMS with a mixture of ten glycans (G2, G5-G13), 200 mM ammonium acetate, pH 6.9.; parameters: gene LGALS3; C-terminal carbohydrate recognition domain fragment, residues 107-250; details: SD, n = 8; read-out: Kd (COIN-nMS), Table S3
[11] = target: T2, GAL-7; assay: Direct native ESI-MS at known concentrations with single glycans, 200 mM ammonium acetate, pH 6.9, 25 °C.; details: SD; read-out: Kd (nMS), Table S2
[12] = target: T2, GAL-7; assay: COIN-nMS (slow mixing in nanoESI emitter, fit of eq 12) at one glycan concentration, 200 mM ammonium acetate, pH 6.9, 25 °C.; details: SD; read-out: Kd (COIN-nMS, individual experiments), Table S2
[13] = target: T2, GAL-7; assay: COIN-nMS, global fit over several glycan concentrations, 200 mM ammonium acetate, pH 6.9, 25 °C.; details: SD; read-out: Kd (COIN-nMS, global fit), Table S2
[14] = target: T4, MAA; assay: COIN-CaR-nMS (collisional release of bound glycan, fit of eq 13) with single purified glycans, 200 mM ammonium acetate, pH 6.9.; details: SD; read-out: Kd (COIN-CaR-nMS), Table S6
T4 construct: commercial lectin mixture

[15] = target: T4, MAA; assay: Isothermal titration calorimetry, 200 mM ammonium acetate, pH 6.8-6.9, 25 °C.; details: SD; read-out: Kd (Literature), Table S6, determined by ITC
[16] = target: Sig7-Fc (Homo sapiens, UniProt Q9Y286); assay: COIN-CaR-nMS with purified oligosaccharides listed beside the library glycans, 200 mM ammonium acetate, pH 6.9.; parameters: gene SIGLEC7; residues 1-345, human IgG1 Fc fusion and C-terminal His6, from CHO cells, MW 150 kDa; details: SD; read-out: Kd, purified oligosaccharides in Tables S12, S13, S18, S19
Chain of Sig7-Fc (Q9Y286 1-345): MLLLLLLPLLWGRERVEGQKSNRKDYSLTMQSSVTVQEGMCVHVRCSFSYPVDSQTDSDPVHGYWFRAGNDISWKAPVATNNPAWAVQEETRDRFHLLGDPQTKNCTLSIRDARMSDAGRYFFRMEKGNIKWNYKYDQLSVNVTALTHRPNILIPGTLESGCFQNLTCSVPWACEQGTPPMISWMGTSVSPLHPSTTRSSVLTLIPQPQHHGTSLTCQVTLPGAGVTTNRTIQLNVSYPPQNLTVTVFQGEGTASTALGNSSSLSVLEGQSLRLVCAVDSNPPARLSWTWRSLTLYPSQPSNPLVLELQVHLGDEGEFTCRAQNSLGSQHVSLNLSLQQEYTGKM

T1 sequence (P17931 107-250): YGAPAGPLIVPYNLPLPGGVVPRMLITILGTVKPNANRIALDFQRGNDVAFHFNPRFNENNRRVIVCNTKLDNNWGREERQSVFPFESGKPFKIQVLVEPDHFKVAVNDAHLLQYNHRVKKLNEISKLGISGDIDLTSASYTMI
T2 sequence (P47929 whole entry): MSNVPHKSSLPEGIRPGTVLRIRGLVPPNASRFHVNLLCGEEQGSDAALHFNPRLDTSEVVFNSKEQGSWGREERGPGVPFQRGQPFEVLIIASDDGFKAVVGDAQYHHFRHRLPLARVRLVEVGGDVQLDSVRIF

Q: For `CC(=O)N[C@H]1C(O)O[C@H](CO)[C@@H](O[C@@H]2O[C@H](CO)[C@H](O)[C@H](O[C@H]3O[C@H](CO)[C@H](O)[C@H](O)[C@H]3O)[C@H]2O[C@@H]2O[C@@H](C)[C@@H](O)[C@@H](O)[C@@H]2O)[C@@H]1O` (stereo partly drawn) [G1, α-D-Gal-(1→3)-[α-L-Fuc(1→2)]-β-D-Gal(1→4)-D-GlcNAc], which Kd [1] is on record?
A: 4.2 µM

Q: What about the Kd [2] of the same molecule?
A: 3.2 µM and 3.7 µM and 5.8 µM

Q: What about the Kd [3] of the same molecule?
A: 3.8 µM

Q: And the Kd [4]?
A: 4.5 µM

Q: With `C[C@@H]1O[C@@H](O[C@H]2[C@H](O[C@H]3[C@H](O)[C@@H](O)C(O)O[C@@H]3CO)O[C@H](CO)[C@H](O)[C@@H]2O)[C@@H](O)[C@H](O)[C@@H]1O` (stereo partly drawn) [G2, α-L-Fuc-(1→2)-β-D-Gal-(1→4)-D-Glc (2'-fucosyllactose)] as the molecule, how does the Kd [5] read?
A: 237 µM

Q: What about the Kd [6] of the same molecule?
A: 241 µM

Q: What about the Kd [7] of the same molecule?
A: 2100 µM

Q: And the Kd [8]?
A: 660 µM

Q: What about the Kd [1] of the same molecule?
A: 26.6 µM

Q: And the Kd [2]?
A: 27 µM and 24.8 µM and 28 µM

Q: And the Kd [3]?
A: 23.2 µM

Q: What about the Kd [9] of the same molecule?
A: 166 µM

Q: What about the Kd [10] of the same molecule?
A: 156 µM

Q: What about the Kd [4] of the same molecule?
A: 47.6 µM

Q: Which results are given for `CC(=O)N[C@H]1[C@H](O[C@H]2[C@@H](O)[C@@H](CO)O[C@@H](O[C@H]3[C@H](O[C@@H]4O[C@@H](C)[C@@H](O)[C@@H](O)[C@@H]4O)[C@@H](O)C(O)O[C@@H]3CO)[C@@H]2O)O[C@H](CO)[C@@H](O[C@@H]2O[C@H](CO)[C@H](O)[C@H](O)[C@H]2O)[C@@H]1O[C@@H]1O[C@@H](C)[C@@H](O)[C@@H](O)[C@@H]1O` (stereo partly drawn) [G3, Gal-(1→4)-[α-L-Fuc(1→3)]-β-D-GlcNAc-(1→3)-β-D-Gal(1→4)[α-L-Fuc(1→3)]-D-Glc]?
A: Kd [11]: 518 µM; Kd [12]: 524 µM and 507 µM and 537 µM; Kd [13]: 521 µM

Q: With `CC(=O)N[C@H]1[C@H]([C@H](O)[C@H](O)CO)O[C@@](O[C@H]2[C@@H](O)[C@@H](CO)O[C@@H](O[C@H]3[C@H](O)[C@@H](O)C(O)O[C@@H]3CO)[C@@H]2O)(C(=O)O)C[C@@H]1O` (stereo partly drawn) [G22, 3SL, 3'-sialyllactose, α-D-Neu5Ac-(2→3)-β-D-Gal-(1→4)-D-Glc] as the molecule, how does the Kd [14] read?
A: 3.5 µM

Q: What about the Kd [15] of the same molecule?
A: 3.6 µM

Q: And the Kd [16]?
A: 277 µM
